Converted amounts (≈) assume the structure as drawn.
How the values were obtained:
[1] = cited from earlier work
[2] = Kinetic aqueous solubility of docetaxel derivatives in acetate buffer; conditions: for solubility: kinetic from dmso stock
Procedure: An aliquot was diluted 10-fold with 10 mM acetate buffer (pH 5) and the pH was checked and re-adjusted as necessary to reach pH 5. Alternatively, 10 mg of each compound was weighed into a glass vial, and 2 mL of 10 mM acetate buffer (pH 5) was added to the compound, followed by sonication of the suspension for minutes. The precipitate was then removed using Microcon MY100 filters (MW cut-off 100,000 Da) and the filtrate analyzed by UPLC-UV for drug content. The measured solubilities are kinetic solubilities determined under non-equilibrium conditions.

[3] = In vitro release of docetaxel derivatives from LN in mouse plasma; type: in vitro ADME; conditions: 37° C., same prodrug-to-lipid ratio
Procedure: In vitro release of docetaxel derivatives from LN was assessed in mouse plasma. Drug retention was determined by comparison of the initial prodrug-to-lipid ratio with the prodrug-to-lipid ratios found at different time points. […] LN formulations were mixed with mouse plasma at a final lipid concentration of 0.75 mg/ml, followed by incubation at 37° C. At various time points, aliquots were taken and run over Sephadex G-50 spin columns to remove the unentrapped prodrug (Pick, Arch. Biochem. Biophys., 212:186-194 (1981)). The derivative and lipid concentrations in the eluates were determined by UHPLC and liquid scintillation counting, respectively.

[4] = Stability in mouse plasma; type: in vitro ADME; conditions: 24 hour incubation in mouse plasma, 37° C.
Procedure: (§1) The chemical stability of the docetaxel derivatives was determined in aqueous solutions at different pH values and temperatures, and in biological media (mouse plasma). Aliquots of the docetaxel derivatives in acetonitrile were mixed with buffered citrate/HEPES (10 mM/10 mM) solutions at pH 4.0 and 7.5, or in mouse plasma in 1 mL glass HPLC sample vials sealed with Teflon-lined caps (final volume 0.25 ml, final docetaxel derivative concentration 50 µg/ml). Drug stability was determined 1, 4 and 24 hrs after incubation at 37° C. by UPLC-UV. At the indicated time points, a 3-fold excess of methanol/0.1% TFA was added to the sample. Citrate/HEPES buffered samples were analyzed by UHPLC as described above. For plasma samples, proteins precipitated by the addition of methanol/0.1% TFA pelleted by centrifugation at 14,000×g and supernatants were analyzed for the drug derivatives. Heparanized mouse plasma was diluted to 50% with 100 mM sodium-phosphate buffer to keep the pH constant throughout the experiment.
(§2) To be suitable for formulation in LN, derivatives must be stable at pH 4 (the pH present inside the LN carrier). In addition, prodrug derivatives should readily form the active drug under physiological conditions (e.g., at pH 7.4 and/or in the presence of endogenous enzymes) once released from the LN. […] TD1-3 and TD7 were selected for loading into LN and testing of such LN for drug release in vitro.

[5] = Chemical (hydrolytic) stability in buffered aqueous solutions; type: physicochemical; conditions: 24 hour incubation in pH 7.4 buffer, 37° C.
[6] = as above; type: physicochemical; conditions: 24 hour incubation in pH 4 buffer, 37° C.
Procedure: as §1, §2

[7] = tested on: prostate cancer cell line PC3; test: In vitro cytotoxicity, Alamar Blue assay; type: cell-based; conditions: Homo sapiens; PC-3, 72-h drug exposure
Procedure: (§3) Anticancer activity was evaluated against a panel of 3 human cancer cell lines, including the ovarian cancer cell line ES-2, the prostate cancer cell line PC3 and the breast cancer cell line MDA435/LCC6 (BC Cancer Research Centre, Vancouver, BC) (Fields and Lancaster, Am. Biotechnol. Lab., 11:48-50 (1993); Nakayama et al., J. Immunol. Methods, 204:205-208 (1997)). Cytotoxicity was determined using the Alamar Blue assay after a 72-h drug exposure period. […] The plates were returned to the incubator for 4 h; sample fluorescence was determined at λex=530 nm and λem=590 nm. Viability was calculated according to: Cell viability (%)=(Fplus drug−Fbackground)/(Fminus drug−Fbackground)*100, where Fplus drug is the fluorescence reading in the presence of drug, Fminus drug the cell control in the absence of drug and Fbackground the background fluorescence (media alone).

[8] = tested on: ovarian cancer cell line ES-2; test: In vitro cytotoxicity, Alamar Blue assay; type: cell-based; conditions: Homo sapiens; ES-2, 72-h drug exposure
Procedure: as §3

[9] = tested on: breast cancer cell line MDA435/LCC6; test: In vitro cytotoxicity, Alamar Blue assay; type: cell-based; conditions: Homo sapiens; MDA-MB-435/LCC6, 72-h drug exposure
Procedure: as §3

[10] = 10 mM acetate buffer with 10% (v/v) ethanol, pH 5, aqueous with cosolvent or surfactant or cyclodextrin
[11] = 10 mM acetate buffer, pH 5, aqueous buffer

SMILES	Solubility in Water [1]	Prodrug levels (% remaining), Plasma [4]	Prodrug levels (% remaining), pH 7.4 [5] [%]	Prodrug levels (% remaining), pH 4 [6] [%]	other results
CO[C@H]1C[C@@H]2CC[C@@H](C)[C@@](O)(O2)C(=O)C(=O)N2CCCC[C@H]2C(=O)O[C@H]([C@H](C)C[C@@H]2CC[C@@H](O)[C@H](OC)C2)CC(=O)[C@H](C)/C=C(\C)[C@@H](O)[C@@H](OC)C(=O)[C@H](C)C[C@H](C)/C=C/C=C/C=C/1C [Sirolimus]	insoluble in water	–	–	–	–
CC(=O)O[C@@]12CO[C@@H]1C[C@H](O)[C@@]1(C)C(=O)[C@H](O)C3=C(C)[C@@H](OC(=O)[C@H](OC(=O)CCCN4CCCCC4)[C@@H](NC(=O)OC(C)(C)C)c4ccccc4)C[C@@](O)([C@@H](OC(=O)c4ccccc4)C12)C3(C)C (stereo partly drawn) [TD7, Piperidinyl butanoic acid ester]	–	8%	13	94	solubility ([2]; pH 5, aqueous buffer): 1900 µg/mL (≈ 1980 µM); in vitro retention / release rate in DSPC/chol LN relative to TD1 [3]: released at a rate mirroring that of TD1
CC(=O)O[C@@]12CO[C@@H]1C[C@H](O)[C@@]1(C)C(=O)[C@H](O)C3=C(C)[C@@H](OC(=O)[C@H](OC(=O)CN4CCN(C)CC4)[C@@H](NC(=O)OC(C)(C)C)c4ccccc4)C[C@@](O)([C@@H](OC(=O)c4ccccc4)C12)C3(C)C (stereo partly drawn) [TD2, N-methyl-piperazinyl acetic acid ester]	–	31%	59	99	solubility [2, 10]: 25000 µg/mL (≈ 26400 µM); solubility [2, 11]: 2000 µg/mL (≈ 2110 µM); in vitro retention / release rate in DSPC/chol LN relative to TD1 [3]: released at a slightly faster rate
CC(=O)O[C@@]12CO[C@@H]1C[C@H](O)[C@@]1(C)C(=O)[C@H](O)C3=C(C)[C@@H](OC(=O)[C@H](OC(=O)CN4CCOCC4)[C@@H](NC(=O)OC(C)(C)C)c4ccccc4)C[C@@](O)([C@@H](OC(=O)c4ccccc4)C12)C3(C)C (stereo partly drawn) [TD5, Morpholino acetic acid ester]	–	45%	64	81	solubility [2, 10]: 300 µg/mL (≈ 321 µM); solubility [2, 11]: 140 µg/mL (≈ 150 µM)
C=CC[C@@H]1/C=C(\C)C[C@H](C)C[C@H](OC)[C@H]2O[C@@](O)(C(=O)C(=O)N3CCCC[C@H]3C(=O)O[C@H](/C(C)=C/[C@@H]3CC[C@@H](O)[C@H](OC)C3)[C@H](C)[C@@H](O)CC1=O)[C@H](C)C[C@@H]2OC [Tacrolimus]	insoluble	–	–	–	–
C=C1/C(=C\C=C2/CCC[C@]3(C)[C@@H]([C@H](C)/C=C/[C@H](C)C(C)C)CC[C@@H]23)C[C@@H](O)C[C@@H]1O [Doxercalciferol]	relatively insoluble	–	–	–	–
CC(=O)O[C@@]12CO[C@@H]1C[C@H](O)[C@@]1(C)C(=O)[C@H](O)C3=C(C)[C@@H](OC(=O)[C@H](OC(=O)CN4CCCCC4)[C@@H](NC(=O)OC(C)(C)C)c4ccccc4)C[C@@](O)([C@@H](OC(=O)c4ccccc4)C12)C3(C)C (stereo partly drawn) [TD8, Piperidinyl acetic acid ester]	–	4%	36	78	solubility ([2]; pH 5, aqueous buffer): 500 µg/mL (≈ 536 µM)
C[C@H](/C=C/[C@H](C)C(C)(C)O)[C@H]1CC[C@H]2/C(=C/C=C3C[C@@H](O)C[C@H](O)C3)CCC[C@]12C [Paricalcitol]	6.8 µg/mL (≈ 16.3 µM)	–	–	–	–
CC(C)c1cccc(C(C)C)c1O [Propofol]	124 µg/mL (≈ 696 µM)	–	–	–	–
C[C@@H]1[C@H](O)[C@@H](C)/C=C/C=C/C=C/C=C/C=C/C=C/C=C/[C@H](O[C@@H]2O[C@H](C)[C@@H](O)[C@H](N)[C@@H]2O)C[C@@H]2O[C@](O)(C[C@@H](O)C[C@@H](O)[C@H](O)CC[C@@H](O)C[C@@H](O)CC(=O)O[C@H]1C)C[C@H](O)[C@H]2C(=O)O [Amphotericin B]	750 µg/mL (≈ 812 µM)	–	–	–	–
CC(=O)O[C@@]12CO[C@@H]1C[C@H](OC(=O)CCCN1CCN(C)CC1)[C@@]1(C)C(=O)[C@H](O)C3=C(C)[C@@H](OC(=O)[C@H](O)[C@@H](NC(=O)OC(C)(C)C)c4ccccc4)C[C@@](O)([C@@H](OC(=O)c4ccccc4)C12)C3(C)C (stereo partly drawn) [TD10, 7-O-(N-methyl-piperazinylbutanoic acid ester)]	–	–	–	–	solubility ([2]; pH 5, aqueous buffer): 3000 µg/mL (≈ 3070 µM)
CC(=O)O[C@@]12CO[C@@H]1C[C@H](O)[C@@]1(C)C(=O)[C@H](O)C3=C(C)[C@@H](OC(=O)[C@H](OC(=O)CCCCN4CCN(C)CC4)[C@@H](NC(=O)OC(C)(C)C)c4ccccc4)C[C@@](O)([C@@H](OC(=O)c4ccccc4)C12)C3(C)C (stereo partly drawn) [TD3, N-methyl-piperazinyl pentanoic acid ester]	–	29%	69	99	solubility [2, 10]: 4100 µg/mL (≈ 4140 µM); solubility [2, 11]: 2500 µg/mL (≈ 2520 µM); in vitro retention / release rate in DSPC/chol LN relative to TD1 [3]: released at a slightly faster rate
CC(=O)O[C@@]12CO[C@@H]1C[C@H](O)[C@@]1(C)C(=O)[C@H](O)C3=C(C)[C@@H](OC(=O)[C@H](OC(=O)CCCN4CCOCC4)[C@@H](NC(=O)OC(C)(C)C)c4ccccc4)C[C@@](O)([C@@H](OC(=O)c4ccccc4)C12)C3(C)C (stereo partly drawn) [TD4, Morpholino butanoic acid ester]	–	64%	92	98	solubility [2, 11]: 120 µg/mL (≈ 125 µM); Solub. in 10 mM acetate pH 5 ([2]; pH 5, no ethanol, kinetic solubility): extremely low solubility
CCCCC(=O)OCC(=O)[C@]1(O)Cc2c(O)c3c(c(O)c2[C@@H](O[C@H]2C[C@H](NC(=O)C(F)(F)F)[C@H](O)[C@H](C)O2)C1)C(=O)c1c(OC)cccc1C3=O [Valrubicin]	insoluble	–	–	–	–
C[C@]12C=CC(=O)C=C1CC[C@@H]1[C@@H]2C(=O)C[C@@]2(C)[C@H]1CC[C@]2(O)C(=O)CO [Prednisone]	312 µg/mL (≈ 870 µM)	–	–	–	–
CC(C)CN(C[C@@H](O)[C@H](Cc1ccccc1)NC(=O)O[C@H]1CCOC1)S(=O)(=O)c1ccc(N)cc1 [Amprenavir]	36 µg/mL (≈ 71.2 µM)	–	–	–	–
CC(=O)O[C@@]12CO[C@@H]1C[C@H](O)[C@@]1(C)C(=O)[C@H](O)C3=C(C)[C@@H](OC(=O)[C@H](OC(=O)CCN4CCOCC4)[C@@H](NC(=O)OC(C)(C)C)c4ccccc4)C[C@@](O)([C@@H](OC(=O)c4ccccc4)C12)C3(C)C (stereo partly drawn) [TD6, Morpholino propionic acid ester]	–	0%	18	68	solubility [2, 10]: 1500 µg/mL (≈ 1580 µM); solubility [2, 11]: 480 µg/mL (≈ 506 µM)
CC(=O)O[C@@]12CO[C@@H]1C[C@H](O)[C@@]1(C)C(=O)[C@H](O)C3=C(C)[C@@H](OC(=O)[C@H](OC(=O)CCCCN4CCCCC4)[C@@H](NC(=O)OC(C)(C)C)c4ccccc4)C[C@@](O)([C@@H](OC(=O)c4ccccc4)C12)C3(C)C (stereo partly drawn) [TD9, Piperidinyl pentanoic acid ester]	–	no effect	65	99	solubility ([2]; pH 5, aqueous buffer): 1000 µg/mL (≈ 1030 µM); solubility ([2]; pH 5, aqueous with cosolvent or surfactant or cyclodextrin): 2300 µg/mL (≈ 2360 µM); Prodrug levels (% remaining), Plasma ([4]; listed as TD-9): 60%
CC(=O)O[C@@]12CO[C@@H]1C[C@H](O)[C@@]1(C)C(=O)[C@H](O)C3=C(C)[C@@H](OC(=O)[C@H](O)[C@@H](NC(=O)OC(C)(C)C)c4ccccc4)C[C@@](O)([C@@H](OC(=O)c4ccccc4)[C@H]21)C3(C)C [Docetaxel, reference compound]	–	–	–	–	IC50 [7]: 1000 pM; IC50 [8]: 100 pM; IC50 [9]: < 100 pM
C[C@@H]1C[C@H]2[C@@H]3CCC4=CC(=O)C=C[C@]4(C)[C@@]3(F)[C@@H](O)C[C@]2(C)[C@@]1(O)C(=O)CO [Dexamethasone]	89 µg/mL (≈ 227 µM)	–	–	–	–
COc1c(C)c2c(c(O)c1C/C=C(\C)CCC(=O)O)C(=O)OC2 [Mycophenolic acid]	insoluble	–	–	–	–

From US8545876B1, “Modified drugs for use in liposomal nanoparticles” (The University of British Columbia, priority 2008, dated 2013)
